In PMC7023239, “Evaluation of the Biodistribution of Serinolamide-Derivatized C60 Fullerene” (Nanomaterials, 2020):

Key:
[1] = PET/CT biodistribution in mice; assay type: in vivo, male nude mice
Method: PET and CT scans were performed using a small animal Albira PET/SPECT/CT scanner (Bruker Corporation, Billerica, MA, USA). PET images were analyzed using PMOD Version 3.505 (PMOD Technologies Ltd., Zürich, Switzerland). PET/CT maximum intensity projections were constructed using Inveon Research Workplace (Siemens Medical Solutions USA, Inc., Malvern, PA, USA). Statistical analysis was performed on GraphPad Prism 8 (GraphPad Software, San Diego, CA, USA).
PET Image Acquisition: All mice were manipulated in accordance to the MD Anderson Cancer Center’s IACUC guidelines. Mice were anesthetized with 2% isoflurane using oxygen as a carrier. For both C60-[^64Cu]Cu(NOTA) and [^64Cu]Cu(NOTA), 6 male nude mice were injected on the bed with ~200 μCi of activity in 150 μL of saline through a tail vein catheter. At the start of injection, a 20-min dynamic PET scan was acquired using the Albira PET/SPECT/CT scanner with a 15 cm field of view (FOV). The actual injected dose was calculated by measuring the pre- and post-injection activity in the syringe using a CRC-15R dose calibrator (Capintec, Inc., Florham Park, NJ, USA). The data were binned into 20-s time frames for the first 5 min, 60-s frames for the next 5 min, and 5-min frames for the next 10 min. Static PET images were then recorded at 3 h and 24 h post-injection (p.i.) for 10 min. A static PET image at 48 h p.i. was recorded for 20 min for C60-[^64Cu]Cu(NOTA) only. Following all PET scans, two 3 min CT scans were performed to cover the whole mouse body with a total FOV of 12.6 cm (400 μA, 45 kV, 250 projections).
The PET images were reconstructed using the Maximum Likelihood Expectation Maximization method with 12 iterations. The CT images were reconstructed using the Filtered Back Projection method. Scatter, randoms, decay, and attenuation corrections were applied through the Albira software. Volumes-of-interest (VOIs) were drawn for the major organs on the decay-corrected PET images using PMOD, and injected doses were used to calculate percent of injected dose per cubic centimeter of tissue (%ID/cc). […]

[2] = Two-phase decay model of heart TAC (blood pharmacokinetics); assay type: in vivo, male nude mice; settings: mice, tail vein
From the text: The PET images were reconstructed using the Maximum Likelihood Expectation Maximization method with 12 iterations. The CT images were reconstructed using the Filtered Back Projection method. Scatter, randoms, decay, and attenuation corrections were applied through the Albira software. Volumes-of-interest (VOIs) were drawn for the major organs on the decay-corrected PET images using PMOD, and injected doses were used to calculate percent of injected dose per cubic centimeter of tissue (%ID/cc). Errors in the averaged %ID/cc were reported as standard error of the mean (SEM). A non-linear regression analysis of the dynamic PET data for both C60-[^64Cu]Cu(NOTA) and [^64Cu]Cu(NOTA) was performed and fitted to a two-phase decay model to determine the blood half-life of each compound.
We also performed a non-linear regression analysis of the heart TAC data of both compounds using a two-phase decay model, which produced a p value of < 0.0001 by an extra sum-of-squares F test. The two-phase decay model consists of a distribution phase and an elimination phase. The fast distribution phase describes the rapid circulation of the material from the plasma to highly-perfused tissues, and the slow elimination phase describes the clearance of the material from the plasma and tissues through excretion. From this analysis, a blood half-life (t1/2) and rate constants (α, β) for each phase were determined along with the clearance rate (CL) and the area under the curve (AUC), which represents a normalized volume of distribution (Table 1).

O=C([O-])CN1CCN(CC(=O)[O-])CCN(CC(=O)O)CC1.[64Cu+2] [[^64Cu]Cu(NOTA)]
period in which most of the material was cleared by renal excretion ([1]; PET): between 20 min and 3 h p.i.
uptake / detected signal at 48 h p.i. ([1]; PET static scan, 48 h p.i., any organ): negligible
uptake in the kidneys compared to other major organs ([1]; PET, 20 min p.i.): significant uptake
Area under Curve (AUC) [2]: 3.173 × 10^2 %ID·min/cc
Distribution Half-Life [2]: 0.4975 min
Distribution Rate Constant (α) [2]: 1.393 min⁻¹
Elimination Half-Life [2]: 8.153 min
Elimination Rate Constant (β) [2]: 0.08501 min⁻¹
